Results on one compound are retold here after US20040081618A1, “Method of screening physiologically active substance” (priority 2000, published 2004).

Molecules are shown by their SMILES.

Assay [1] relates to HL-60 cells. Nature of the assay: Gene expression analysis with Human Cytokine CHIP (ver. 1.0) in TPA-treated neutrophile-like differentiated HL-60 cells. Conditions: genes showing fluctuation by TPA; 100 μL of 4 mM DGE aqueous solution added to 10 mL of 10^6 cells/mL, 6 hours, then TPA, total RNA 4 hours thereafter. It is filed as cell-based. As for the experimental part:
HL-60 cells (ATCC CCL-240) were suspended in RPMI 1640 medium (manufactured by Bio Whittaker, 12-702F) containing 10% fetal bovine serum (manufactured by JRH Biosciences) and 1.3% dimethyl sulfoxide, and the cells were cultured at 37° C. for one week in the presence of 5% carbon dioxide gas to induce differentiation to neutrophile-like cells.
The cells obtained as described above were collected by centrifugation, and suspended in 10% fetal bovine serum-containing RPMI 1640 medium so as to have a concentration of 10^6 cells/mL, and 10-mL portions of the cells were added to a 10-cm petri dish. […]
Twenty-five micrograms of each of the total RNAs obtained as described above and 100 pg of λ poly A^+ RNA-A (manufactured by Takara Shuzo Co., Ltd., TX802) were subjected to synthesis reaction of fluorescence-labeled cDNA by using RNA Fluorescence Labeling Core Kit (manufactured by Takara Shuzo Co., Ltd., TX807) and 1 mM FluoroLink Cy3-dUTP or Cy5-dUTP (manufactured by Amersham-Pharmacia Biotech, PA53022(Cy3), PA55022(Cy5) in accordance with the instruction for the kit and the resulting cDNA was purified. The solutions of fluorescence-labeled DNA were mixed in the combination of Table 4, and the mixture was subjected to a chloroform-isoamyl alcohol (24:1) extraction. […]

Assay [2] relates to HL-60 cells. Nature of the assay: Analysis of expression using DNA microarray (740 clones from DNA microbeads screening) in TPA-treated differentiated HL-60 cells. Format: cell-based, human. Conditions: 4 mM DGE 100 μL in 10 mL, 6 hours, then TPA, RNA 4 hours thereafter, expression ratio 0.55 or less or 1.8 or more. Here is the method:
The reaction for PCR was carried out by using a primer pair having the sequences shown in SEQ ID NO: 10 and SEQ ID NO: 11 of Sequence Listing, with the 740 clones of plasmids obtained in Example 3 as a template. Next, the amplified product was purified by ethanol precipitation, and thereafter the product was dissolved in 1×SolutionT (manufactured by Takara Shuzo Co., Ltd.) so as to have a concentration of 0.3 μg/μl, and this solution was used as a spotting solution. The spotting solution was spotted on MAS-coated slide glass (manufactured by Matsunami Glass), amino-group carrying slide glass, by using Affymetrix 417 Arrayer (manufactured by Affymetrix). The spotted glass was incubated at 37° C. and humidity of 90% for 1 hour, and thereafter cross-linked by UV irradiation at energy of 60 mJ/cm^2. Further, the slide glass was washed once with 0.2% SDS and then twice with distilled water, and thereafter immersed in a blocking solution comprising 2.75 g of succinic anhydride, 162.5 ml of N-methyl-2-pyrrolidone and 15 ml of 1 M borate buffer (pH 8.0) for 20 minutes, to block free amino groups. Next, the slide glass was washed twice with distilled water and subjected to thermal denaturation in boiling water for 2 minutes, and rapidly cooled in 100% ethanol at ice temperature. Thereafter, the slide glass was dried by a low-speed centrifugation at 1000 rpm or so, and used for the following experiment. […]
A PolyA(+) RNA was prepared from HL-60 cells prepared in item (2) of Example 4 by using Trizol Reagent (manufactured by Gibco BRL) and Oligotex-dT30 <Super> (manufactured by Takara Shuzo Co., Ltd.) in accordance with the protocol for each of the kits. Next, each of cDNAs labeled with Cy3 and Cy5 was prepared by using RNA Fluorescence Labeling Core Kit (M-MLV Version) (manufactured by Takara Shuzo Co., Ltd.) in accordance with the protocol for the kit with 1.0 μg of PolyA(+) RNA as a template, and their cDNAs were mixed in the combinations of the sample RNA shown in Table 8.
Next, hybridization of the DNA microarray prepared in item (1) of Example 4 with the above-mentioned mixtures (4 kinds) of Cy3-labeled cDNA and Cy5-labeled cDNA was carried out in accordance with the instruction manual of IntelliGene (manufactured by Takara Shuzo Co., Ltd.), and the array was subjected to procedures of washing and drying. Subsequently, the fluorescence images were obtained for Cy3 (excitation wavelength: 532 nm, detection wavelength: 570 nm) and Cy5 (excitation wavelength: 635 nm, detection wavelength: 660 nm) by using Affymetrix 428 Array Scanner (manufactured by Affymetrix). […]

In assay [3] the test system is plastic adherent monocytes. Nature of the assay: Gene expression analysis with Human Cytokine CHIP (ver. 2.0) in LPS-treated plastic adherent monocytes. Format: cell-based. Here is the method:
Four-hundred milliliters of blood was collected from a human normal individual donor. The collected blood was diluted 2-folds with PBS(−), overlaid on Ficoll-paque (manufactured by Pharmacia), and centrifuged at 500×g for 20 minutes. The peripheral blood mononuclear cells (PBMCs) in the intermediate layer was collected with a pipette, and washed with RPMI 1640 medium (manufactured by Bio Whittaker). The collected PBMCs were suspended in a storage solution of 90% FCS (manufactured by JRH Biosciences)/10% dimethyl sulfoxide, and stored in liquid nitrogen. During the experiment, these stored PBMCs were rapidly melted in water bath at 37° C., and washed with RPMI 1640 medium containing 10 μg/ml Dnase (manufactured by Calbiochem). Thereafter, the number of living cells was calculated by trypan blue staining method, and subjected to each experiment.
PBMCs were suspended in RPMI 1640 medium containing 5% human serum of blood type-AB, 0.1 mM nonessential amino acid, 1 mM sodium pyruvate, 2 mM L-glutamine (hereinabove manufactured by Bio Whittaker), 10 mM HEPES (manufactured by nakalai tesque), and 1% streptomycin-penicillin (manufactured by Gibco BRL) (hereinafter simply referred to as “5HRPMI medium”) so as to have a concentration of 1×10^7 cells/mL. Thereafter, 15 ml of the suspension was spread on a 100-mm petri dish (manufactured by Asahi Techno Glass), and the cells were incubated in a wet-type incubator at 37° C. in the presence of 5% CO2 for 1.5 hours. […]
The synthesis of cDNA was carried out in accordance with the method described in item (2) of Example 1, provided that the combination of the solutions of fluorescence-labeled DNA was in accordance with that shown in Table 6. […]
The fluorescence signal was scanned for each spot of the above-mentioned chip by using Affymetrix 428 Array Scanner (manufactured by Takara Shuzo Co., Ltd.). The fluorescence signal was quantified for each spot by using ImaGene (manufactured by Takara Shuzo Co., Ltd., BD001) on the bases of the image data. […]

Setting [4] is: clones decreased by treatment with TPA.
The mark [5] stands for this setting: clones increased by treatment with TPA.

Regarding `O=C1C=CC(CO)OC1O` [DGE, L-glycero-1,5-epoxy-1αβ,6-dihydroxy-cis-hex-3-en-2-one], in the assay on HL-60 cells [1], the “Expression of Group A-1 genes (BMP-6, CCR-1, HGF, ICAM-1, IL-1β, IL-16, LIF, Osteopontin, TNF-α, Neuropilin-1; Table 5)” value is “suppressed” and the “Expression of Group B-1 genes (Heme oxygenase-1, Thioredoxin reductase-1; Table 5)” value is recorded as “accelerated”. Besides, in the assay with HL-60 cells [2] (setting [4]), the “Expression of Group C-3 clones (NDRG1, ADAR, SF3B2, ILF3, VARS2, SEQ ID NO: 12; Tables 9, 11)” value is “further decreased” and the “Expression of Group D-3 clones (EEF1A1, RPL17, RPL24, SFRS2, TPT1, UQCRB, RPS15A, RPL27; Tables 10, 11)” value is “further increased”. Also, in the assay with HL-60 cells [2] (setting [5]), the “Expression of Group A-3 clones (STAT6, FLJ22298 fis clone HRC04637; Tables 9, 11)” value is recorded as “further decreased” and the “Expression of Group B-3 clones (SUI1, HSPC014; Tables 9, 11)” value is “further increased”. Also, the “Increase by LPS in expression of Group E genes (IL2RA, IL6, CD166, IRF1, IL15RA, NFKB1, CASP1, IL1B, TNF-α, GRO1, IL1A, INHBA, IL7R, PBEF, LARC, IL8; Table 7)” value in assay [3] (10 μL of 20 mM DGE aqueous solution in 10 mL medium, 4 hours, then LPS, total RNA 4 hours thereafter) was “suppressed”. Further, in assay [3] (DGE+LPS versus negative control), the “Expression of Group G genes (Heme oxygenase-1 HMOX1; Table 7)” value is “increased”. In assay [3] (genes not fluctuating by LPS, DGE+LPS versus negative control), the “Expression of Group F genes (CSF1R, CXCR4, ENG; Table 7)” value is “decreased”.
